How the values were obtained:
LLC tumor cells = test: LLC lung cancer tumor model in C57BL/6 mice; format: in vivo, mouse; conditions: 175 nmol/kg intraperitoneally
Method: More specifically, C57BL/6 wild-type mice were purchased from DBL (Korea). LLC tumor cells were mixed with Matrigel (Corning, NY, USA) and then the mixture was injected into the right flank of mice (5×10^4 cells/mouse). Five days after tumor cell injection, the recombinant dKLA, MEL, and MEL-dKLA peptides were injected intraperitoneally thereto for 3 days for a total of three times (175 nmol/kg dosage/weight per each time). All tumor tissues were harvested 12 days after the injection. The animal experiment was approved by the Animal Management Committee of Kyunghee University [KHUASP(SE)-17-087]. The animals were managed via autonomous feeding of water and food under a 12-hour light/dark cycle environment without pathogens.

[1] = system: RAW264.7 cells differentiated into M2 cells; test: XF24 Extracellular Flux metabolic measurement (OCR, ECAR); format: cell-based, mouse; conditions: 1 μM peptide, compared to PBS-treated group
Method: […] assay was performed to measure the effect of MEL-dKLA on the metabolic action of mitochondria.
More specifically, the metabolic action was measured using an XF24 Extracellular Flux analyzer (Agilent, CA, USA). RAW264.7 cells were differentiated into M2 cells which were inoculated into XF-24 plates (3×10^4 cells/well). The next day, in order to minimize the potential stress due to changes in the situation, 1 μM of each peptide was applied thereto. Then, the cells were incubated in a 37° C. incubator under 5% CO2 condition. […] Then, the oxygen consumption rate (OCR) and the extracellular acidification rate (ECAR) were measured in real time.
Further, OCR was measured at a time point corresponding to 12 times. The basal state was measured at a time point corresponding to 3 times. Then, ATP-connected respiration after oligomycin addition was measured at a time point corresponding to further 3 times. Then, the maximum respiration after FCCP addition was measured at a time point corresponding to further 3 times. Then, a point at which non-mitochondrial respiration occurred after addition of Rot/AA was measured at a time point corresponding to remaining 3 times. Thus, the mitochondria respiration ability was measured. ECAR indicating the glycolysis rate was measured at the same time points.

[2] = system: 4T1-luciferase breast cancer cells; test: 4T1-luciferase breast cancer in mammary gland of NOD-SCID mice; format: in vivo, mouse; conditions: 175 nmol/kg once every 3 days; for luminescence level at the metastasis site / metastasis area (lymph nodes of the armpit and lungs): 4 weeks; for growth of breast cancer cells in mammary gland: NOD-SCID mice
Method: More specifically, to identify the effect of MEL-dKLA on tumor growth and metastasis when breast cancer cells were […] into the breast, 4T1-luciferase breast cancer cells (1×10^5) were injected into NOD-SCID mice as immunodeficient mice. From the time point when the tumor mass began to grow in the mammary gland No. 4 on 5 days after the injection, 175 nmol/kg of each of PBS, dKLA, MEL and MEL-dKLA was injected into each group once every 3 days. To measure the growth of the tumor, the size of the tumor was measured once every 3 days using a caliper device, and all tumor tissues were collected 4 weeks after the injection. On 4 weeks after the tumor transplantation, in order to identify metastasis of the tumor to the lymph nodes and lungs, D-luciferin as a substrate of luciferase enzyme was diluted to a concentration of 40 mg/ml and then, 100 μl thereof was administered to mice in an intraperitoneal administration mode. After reacting for about 15 minutes, luminescence was measured using NightOwl (Berthold Technologies) as an in vivo imaging device. Then, we analyzed the luminescence with pictures of mice to identify the level of metastasis to the whole body and lungs. The animal experiment was approved by the Animal Management Committee of Kyunghee University [KHUASP(SE)-18-133], and the animals were managed via autonomous feeding of water and food under a 12-hour light/dark cycle environment without pathogens.

M1 macrophage = test: Annexin V-FITC / MitoTracker flow cytometry, M1 macrophage; format: cell-based, mouse; conditions: 0.8 μM peptide
Method: (§1) More specifically, the cells were stained with Annexin V-fluorescein isothiocyanate (FITC; BD Biosciences, CA, USA) and MitoTracker RedBOX (Invitrogen). The cells were inoculated at 5×10^5 cells/well, onto a 24-well plate. The next day, 0.8 μM peptide was applied thereto. In 1, 3 and 6 hours after the application, the cells were reacted with 250 nM MitoTracker for 1 hour in a serum-free culture solution. Thereafter, the cells were collected and reacted with Annexin V again. The reacted cells were measured with BD FACSCalibur, and were analyzed via FlowJo software (Treestar, Inc., CA, USA). MitoTracker could pass through protoplasmic membrane depending on the membrane charge and then accumulated within the mitochondria. In other words, staining may be identified in the mitochondria membrane of living cells, but staining may be difficult in cells where apoptosis occurs due to membrane disturbance.

M2 macrophage = test: Annexin V-FITC / MitoTracker flow cytometry, M2 macrophage; format: cell-based, mouse; conditions: 0.8 μM peptide, 6 hours
Method: as §1

[3] = system: CD31+ endothelial cells of LLC tumors; test: CD31 immunofluorescence staining of tumor endothelial cells; format: in vivo, mouse; conditions: LLC tumor sections
From the text: CD31 (PECAM-1) is […] the vascular endothelium, and is well-known as a marker that may indicate angiogenesis. The angiogenesis in tumors is essential means to supply oxygen and nutrients to areas at a low oxygen level in the tumor and thus is closely related to cancer growth and metastasis. M2-type macrophages are major precursors of angiogenic factors, and contain cyclooxygenase-2, matrix metalloproteinase-9 and VEGF. The density of macrophage is related to angiogenesis. Therefore, immunostaining was performed and a confocal device was used to identify whether a decrease in the M2-type tumor-associated macrophage (TAM) in a tumor causes a decrease in angiogenesis.
More specifically, the tissue was […] with paraformaldehyde for 24 hours. Then, the tissue was cut into sections having 4 μm thickness using a rotary microtome, which in turn was restored via autoclaving under pressure for 1 minute with tri-sodium citrate buffer. […] After the staining, the sections were mounted on and analyzed using a laser scanning confocal microscope (Carl Zeiss). All images are taken using LSMS PASCAL, and fluorescence values were analyzed using ImageJ software.

Row | Compound | tumor size (LLC tumor cells) | basal respiration (baseline OCR) [1] | luminescence level at the metastasis site [2] | metastasis area (lymph nodes of the armpit and lungs) [2] | growth of breast cancer cells in mammary gland [2] | Annexin V / MitoTracker staining effect on M1 macrophage (M1 macrophage; 1 to 3 hours) | Annexin V / MitoTracker staining change in M1 macrophage (M1 macrophage; 6 hours) | cell death of M2 macrophage (Annexin V / MitoTracker) (M2 macrophage) | CD31+ endothelial cells (blood vessel density) [3] | tumor growth (LLC tumor cells; three times, compared to PBS control)
1 | CC[C@H](C)[C@H](NC(=O)CN)C(=O)NCC(=O)N[C@@H](C)C(=O)N[C@H](C(=O)N[C@@H](CC(C)C)C(=O)N[C@@H](CCCCN)C(=O)N[C@H](C(=O)N[C@@H](CC(C)C)C(=O)N[C@H](C(=O)N[C@H](C(=O)NCC(=O)N[C@@H](CC(C)C)C(=O)N1CCC[C@H]1C(=O)N[C@@H](C)C(=O)N[C@@H](CC(C)C)C(=O)N[C@H](C(=O)N[C@@H](CO)C(=O)N[C@@H](Cc1c[nH]c2ccccc12)C(=O)N[C@H](C(=O)N[C@@H](CCCCN)C(=O)N[C@@H](CCCNC(=N)N)C(=O)N[C@@H](CCCCN)C(=O)N[C@@H](CCCNC(=N)N)C(=O)N[C@@H](CCC(N)=O)C(=O)N[C@@H](CCC(N)=O)C(N)=O)[C@@H](C)CC)[C@@H](C)CC)[C@@H](C)O)[C@@H](C)O)C(C)C)C(C)C [MEL] | significantly reduced | no change in baseline OCR | exhibited a tendency to decrease but did not exhibit significance | no significant difference from the PBS-treated group | did not occur significantly | the effect did not appear | no significant change | no significant difference was found | significant decrease | –
2 | d[KLAKLAKKLAKLAK] (D-amino acids) [dKLA, pro-apoptotic peptide KLA, used as control] | – | no change in baseline OCR | exhibited a tendency to decrease but did not exhibit significance | no significant difference from the PBS-treated group | did not occur significantly | – | – | no significant difference was found | – | tumor steadily grew
